Measured values taken from PubChem BioAssay AID292 (DTP/NCI, 2004).
Several values for one entry are separate records, joined by “and”; a condition that tells them apart may be missing. Equal entries are not always repeated. Toxic doses and inconclusive results are not listed.

Tested on: B6C3F1 mice, ip Sarcoma M5076, median survival T/C
Test: NCI In Vivo Anticancer Drug Screen. Data for tumor model Sarcoma M5076 (intraperitoneal) in B6C3F1 mice
Details: endpoint: median survival time, higher = longer survival
Description: The antitumor activity of compounds was measured in mice bearing transplantable tumors. Survival or tumor size were measured and the results are expressed as the measurement made in the treated group (T) divided by the measurement made in the vehicle treated control group (C). The tumor model used in this assay is Sarcoma M5076 (intraperitoneal) in B6C3F1 mice

[1] = dose: 50.0 mg/kg/injection, schedule: Q04DX004 (ip), vehicle: saline with Tween-80
[2] = dose: 100.0 mg/kg/injection, schedule: Q04DX004 (ip), vehicle: saline with Tween-80
[3] = dose: 200.0 mg/kg/injection, schedule: Q04DX004 (ip), vehicle: saline with Tween-80
[4] = dose: 400.0 mg/kg/injection, schedule: Q04DX004 (ip), vehicle: saline with Tween-80

## COc1cc2c(c(OC)c1OC)-c1ccc(OC)c(=O)cc1[C@@H](NC(C)=O)CC2
dose: 0.38 mg/kg/injection, schedule: Q04DX004 (ip), vehicle: saline
  T/C: 106 % of control
dose: 0.54 mg/kg/injection, schedule: Q04DX004 (ip), vehicle: saline
  T/C: 101 % of control
dose: 0.75 mg/kg/injection, schedule: Q04DX004 (ip), vehicle: saline
  T/C: 112 % of control
dose: 0.9 mg/kg/injection, schedule: Q04DX004 (ip), vehicle: saline
  T/C: 116 % of control
dose: 2.5 mg/kg/injection, schedule: Q04DX004 (ip), vehicle: saline
  T/C: 123 % of control
dose: 185.0 micrograms/kg/injection, schedule: Q04DX004 (ip), vehicle: saline
  T/C: 96 % of control
dose: 375.0 micrograms/kg/injection, schedule: Q04DX004 (ip), vehicle: saline
  T/C: 95 % of control
dose: 750.0 micrograms/kg/injection, schedule: Q04DX004 (ip), vehicle: saline
  T/C: 100 % of control
dose: 1500.0 micrograms/kg/injection, schedule: Q04DX004 (ip), vehicle: saline
  T/C: 100 % of control
dose: 3000.0 micrograms/kg/injection, schedule: Q04DX004 (ip), vehicle: saline
  T/C: 97 % of control

## CSc1c(N(C)C)c(=O)c1=S
dose: 12.5 mg/kg/injection, schedule: Q04DX004 (ip), vehicle: saline with Tween-80
  T/C: 102 % of control
dose: 25.0 mg/kg/injection, schedule: Q04DX004 (ip), vehicle: saline with Tween-80
  T/C: 103 % of control
[1]
  T/C: 98 % of control
[2]
  T/C: 93 % of control

## CC1CCC(NC(=O)N(CCCl)N=O)CC1 (stereo not given)
dose: 3.0 mg/kg/injection, schedule: Q01DX004 (ip), vehicle: Klucel (hydroxypropylcellulose) (HPC)
  T/C: 108 % of control
dose: 6.0 mg/kg/injection, schedule: Q01DX004 (ip), vehicle: Klucel (hydroxypropylcellulose) (HPC)
  T/C: 104 % of control
dose: 12.0 mg/kg/injection, schedule: Q01DX004 (ip), vehicle: Klucel (hydroxypropylcellulose) (HPC)
  T/C: 108 % of control
dose: 48.0 mg/kg/injection, schedule: Q04DX004 (ip), vehicle: Klucel (hydroxypropylcellulose) (HPC)
  T/C: 254 % of control

## CC(NNC(=S)N(C)C1CCCCC1)c1cc2ccccc2cn1 (stereo not given)
dose: 50.0 mg/kg/injection, schedule: Q04DX004 (ip), vehicle: saline
  T/C: 102 % of control
dose: 100.0 mg/kg/injection, schedule: Q04DX004 (ip), vehicle: saline
  T/C: 105 % of control
dose: 200.0 mg/kg/injection, schedule: Q04DX004 (ip), vehicle: saline
  T/C: 111 % of control

## CC1=NN(c2ccccc2)C(=O)C1=Nc1c(C)[nH]n(-c2ccccc2)c1=O
[1]
  T/C: 89 % of control
[2]
  T/C: 92 % of control
[3]
  T/C: 97 % of control
[4]
  T/C: 94 % of control

## O=NNc1ncccn1
dose: 25.0 mg/kg/injection, schedule: Q04DX004 (ip), vehicle: water
  T/C: 101 % of control
dose: 50.0 mg/kg/injection, schedule: Q04DX004 (ip), vehicle: water
  T/C: 100 % of control
dose: 100.0 mg/kg/injection, schedule: Q04DX004 (ip), vehicle: water
  T/C: 97 % of control
dose: 200.0 mg/kg/injection, schedule: Q04DX004 (ip), vehicle: water
  T/C: 100 % of control
dose: 400.0 mg/kg/injection, schedule: Q04DX004 (ip), vehicle: water
  T/C: 110 % of control

## CN(C)C(=O)Nc1ccc(Cl)cc1
dose: 25.0 mg/kg/injection, schedule: Q04DX004 (ip), vehicle: suspension in saline
  T/C: 107 % of control
dose: 50.0 mg/kg/injection, schedule: Q04DX004 (ip), vehicle: suspension in saline
  T/C: 94 % of control and 105 % of control and 113 % of control
dose: 100.0 mg/kg/injection, schedule: Q04DX004 (ip), vehicle: suspension in saline
  T/C: 91 % of control and 102 % of control and 104 % of control
dose: 200.0 mg/kg/injection, schedule: Q04DX004 (ip), vehicle: suspension in saline
  T/C: 92 % of control and 97 % of control and 113 % of control
dose: 400.0 mg/kg/injection, schedule: Q04DX004 (ip), vehicle: suspension in saline
  T/C: 95 % of control and 98 % of control and 99 % of control

## COc1cc2c(c(OC)c1O)-c1ccc(OC)c(=O)cc1[C@@H](NC(=O)C(F)(F)F)CC2
dose: 0.9 mg/kg/injection, schedule: Q04DX004 (ip), vehicle: Klucel (hydroxypropylcellulose) (HPC)
  T/C: 110 % of control
dose: 1.55 mg/kg/injection, schedule: Q04DX004 (ip), vehicle: Klucel (hydroxypropylcellulose) (HPC)
  T/C: 124 % of control
dose: 2.59 mg/kg/injection, schedule: Q04DX004 (ip), vehicle: Klucel (hydroxypropylcellulose) (HPC)
  T/C: 122 % of control
dose: 4.32 mg/kg/injection, schedule: Q04DX004 (ip), vehicle: Klucel (hydroxypropylcellulose) (HPC)
  T/C: 124 % of control
dose: 7.2 mg/kg/injection, schedule: Q04DX004 (ip), vehicle: Klucel (hydroxypropylcellulose) (HPC)
  T/C: 124 % of control

## O=C(Nc1ccccc1O)C1C(=O)C(=O)N(c2ccccc2O)C1=O (stereo not given)
[1]
  T/C: 106 % of control
[2]
  T/C: 103 % of control
[3]
  T/C: 100 % of control
[4]
  T/C: 100 % of control
dose: 800.0 mg/kg/injection, schedule: Q04DX004 (ip), vehicle: saline with Tween-80
  T/C: 95 % of control
